Reference: EP1053750A1, “Use of proteasome-inhibitor for the induction of programmed cell death (apoptosis)” (Max-Planck-Gesellschaft zur Förderung der Wissenschaften …, priority 1999, dated 2000)
Square brackets hold non-standard residues; d marks the D form. Peptide text beside a SMILES is read from it. * marks the point of attachment. Nva = CCC[C@H](N)C(=O)O; Cbz = O=C(OCc1ccccc1)*

Tests used:
HUE cells [1] = assay: DNA fragmentation assay; type: cell-based, human; conditions: 250 µM caspase inhibitor 1 h before 10 µM PSI, 18 h
Procedure: • a. Analysis of PSI-induced DNA fragmentation by agarose gel electrophoresis. […] Neither caspase inhibitor (Ac-YVAD-CHO 250 µM, lane 4; Ac-DEVD-CHO 250 µM, lane 5) nor DMSO (lane 6) induced the characteristic pattern of DNA fragmentation. M1 and M2: DNA size markers (kb). • b. Immunoblot analysis of HUE cell lysates after incubation with PSI. […] Equal loading was controlled by using an antibody directed against GAPDH enzyme.
HUE cells which had been plated at 20000 cells/cm^2 24 hours before the assay, were treated with 250 µM of the caspase inhibitors Ac-YVAD-CHO or Ac-DEVO-CHO (Peptide Institute, Osaka, Japan) or the equivalent volume of dimethylsulfoxide (DMSO) for 1 h prior to additon of the proteasomal inhibitors. Incubation of the cells was continued for a further 18 h and the extent of DNA fragmentation was analyzed as previously described with some minor modifications (Hockenberry et al., Nature 348 (1990), 334 - 336). Briefly, both the floating cells and the adherent cells which were detached by trypsinization, were lysed in a solution containing 0.5% Triton X100, 10 mM EDTA and 10 mM Tris-HCL pH 7.5 for 30 min on ice. To separate the intact chromatin from the oligonucleosomal fragments, the lysate was centrifuged at 13000 g for 10 min at 4°C and the resulting supernatant was sequentially extracted with phenol followed by phenol/chloroform/iso-amylalcohol (25:24:1; v/v/v). Low molecular weight DNA was precipitated by the addition of 0.5 vol 7 M ammonium acetate and 2.5 vol ice-cold ethanol. The precipitate was washed in 75% ethanol, dissolved in TE-buffer, containing RNase A (20 µg/ml; Boehringer Mannheim), incubated for 30 min at 37°C and subjected to electrophoresis on 1.5% agarose gels.

[2] = target: T1, chymotrypic activity of the proteasome (Bos taurus, UniProt Q32KL2); assay: Proteasomal activity in lysates of treated BAE cells, substrate Suc-LLVY-AMC; type: cell-based, bovine; conditions: total cell lysates after 15 h incubation of BAECs with 50 µM inhibitor
T1 construct: endogenous in cells; host or cells: primary bovine aortic endothelial cells (BAE), total lysate after 15-16 h treatment of the cells
T1 sequence (Q32KL2 60-263): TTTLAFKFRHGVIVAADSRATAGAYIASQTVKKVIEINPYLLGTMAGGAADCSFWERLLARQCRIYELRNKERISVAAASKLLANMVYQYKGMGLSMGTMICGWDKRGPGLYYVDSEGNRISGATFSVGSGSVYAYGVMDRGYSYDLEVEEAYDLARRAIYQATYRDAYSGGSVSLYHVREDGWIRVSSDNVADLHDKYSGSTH
Procedure: (§1) Lysates prepared from BAE cells incubated for 15 hours with 50 µM of the indicated inhibitors were assayed for their ability to suppress proteasomal function by using Suc-LLVY-AMC as substrate for the chymotryptic activity (a) and Z-LLE-AMC as substrate for the post acidic residue cleaving activity (b). Activities are expressed as the relative fluorescence measured after 45 min of incubation with the substrates and reflect the mean of two independent experiments each performed in duplicate.
(§2) DMSO at a final concentration of 0.1% served as a vehicle-only control. Floating and adherent cells were harvested, lysed by sonication in ice-cold solution of 20 mM Tris-HCI pH 7.5, containing 20% glycerol, centrifuged in a benchtop centrifuge (10 min, 2000 g). […] A total of 15 µg of protein in a volume of 200 µl lysis buffer supplemented with 5 mM CaCl2 was assayed for chymotryptic and peptidyl-glutamyl-hydrolyzing activity in the presence of 10 µM Suc-Leu-Leu-Val-Tyr-AMC (Bachem, Heidelberg, Germany) and 10 µM Z-Leu-Leu-Glu-AMC (Peptide Institute, Osaka, Japan) respectively.

[3] = test system: subconfluent primary BAE cells; assay: Apoptotic morphology (phase contrast, Hoechst 33342), BAE cells; type: cell-based, bovine; conditions: for morphological changes associated with programmed cell death: subconfluent BAE cells, 50 µM for 15 - 24 h, or 10 µM after 48 hours
calpain = conditions: cited from earlier work
cathepsin B = cathepsin B (Homo sapiens, UniProt P07858); conditions: cited from earlier work
BAE cells = assay: Viability assay (MIT assay), BAE cells; type: cell-based, bovine; conditions: for EC50: Bos taurus
HUE cells [4] = assay: Viability assay (MIT assay), HUE cells; type: cell-based, human; conditions: for EC50: Homo sapiens, 48 h, 48 h incubation
MDCK epithelial cells = assay: Viability assay (MIT assay), MDCK cells; type: cell-based, canine; conditions: for EC50: Canis lupus familiaris, 48 h, 48 h incubation
Procedure: The indicated values are expressed as the percentage of absorbance at 570 nm relative to the absorbance obtained by DMSO treated (control) cells.
Madin Darby canine kidney epithelial cells (MDCK; ATCC CLL-34) were grown in Dulbecco's Modified Eagle's Medium (DMEM) containing 10% FCS, penicillin and streptomycin.
Briefly, the cells were plated either at 3000 cells/well (low density) or 30000 cells/well (high density) onto 96 well plates and grown over night. […] The formazan cystals generated were subsequently dissolved in DMSO and absorption measured at 570 - 650 nm.

[5] = target: T2, peptidyl-glutamyl hydrolyzing activity of the proteasome (Bos taurus, UniProt Q3MHN0); assay: Proteasomal activity in lysates of treated BAE cells, substrate Z-LLE-AMC; type: cell-based, bovine; conditions: total cell lysates after 15 h incubation of BAECs with 50 µM inhibitor
T2 construct: endogenous in cells; host or cells: primary bovine aortic endothelial cells (BAE), total lysate after 15-16 h treatment of the cells
T2 sequence (Q3MHN0 1-239): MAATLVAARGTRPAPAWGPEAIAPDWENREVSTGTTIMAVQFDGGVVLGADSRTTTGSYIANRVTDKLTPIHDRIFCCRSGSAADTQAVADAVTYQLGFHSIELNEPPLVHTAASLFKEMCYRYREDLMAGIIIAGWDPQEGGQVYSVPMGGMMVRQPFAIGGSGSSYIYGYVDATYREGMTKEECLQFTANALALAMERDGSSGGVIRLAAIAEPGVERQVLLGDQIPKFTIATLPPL
Procedure: as §1, §2

[6] = test system: chorioallantoic membrane (CAM); assay: Chorioallantoic membrane (CAM) assay; type: in vivo, chick embryo
Procedure: All experiments with chick embryos were performed in ovo. After aspiration of 2 ml of eggwhite from the pointed side of the egg, a window was cut into the eggshell on embryonic day 3 or 4 (E3, E4). The eggs were resealed with tape and further incubated until E9. […] Approximately 1 cm^2-pieces of the CAM were then cut out, washed in PBS and fixed in Carnoy's solution. After dehydration and embedding in paraffin, 8 µm sections were cut and stained with an anti-BrdU mouse monoclonal antibody (Boehringer Mannheim, Germany) according to the manufacturer's instructions. Counterstaining of the sections was performed with Gill's hematoxylin (Serva, Heidelberg, Germany). Sections were mounted using Aquamount (Merck, Darmstadt, Germany) and photos were taken with a Zeiss Axiophot microscope. […] Control pellets were prepared with an equal amount of Leupeptin or with DMSO as vehicle, respectively. To aid in the visualization of the vascular system, embryos and CAMs were then injected using pulled glass capillaries with 10% Luconyl Blue (BASF, Ludwigshafen, Germany) in PBS, and photographs were taken using a stereomicroscope with camera adapter.
In eight eggs the windows of the egg shells were enlarged under an operation microscope. After a peripheral incision in the CAM was made, the main artery was incised with a pair of ocular scissors, and a glass capillary (World Precision Instruments, Inc. Germany) pulled to the adequate diameter, was inserted and sealed with a drop of cyanoacrylate (Loctite®). Efflux was enabled by making another incision into a main draining vessel. The vascular system was flushed with up to 5 ml of prewarmed (37 -39°C) physiological saline (0.9% NaCI) under mechanically controlled pressure. […] After complete polymerization of the casting solution, the membranes were dissected and macerated in a solution of 5% potassium hydroxide (Fluka, Neu-Ulm, Germany) at 40°C for 1 - 2 days. The resulting corrosion casts of all specimens were freeze dried, mounted and sputter coated. Examination of the microvascular corrosion casts were carried out with a Stereoscan Mk-250 scanning electron microscope (Cambridge, England). Alternatively, in situ fixed CAM segments were cut out, processed for semi-thin sectioning and stained with methylene blue and Azur II. Selected specimens were trimmed for ultrathin sectioning, and counterstained with uranyl acetate and lead citrate.

[7] = EC50 confluent versus subconfluent, 2880 min
[8] = sub (low density, subconfluent)

Question: With `CC(=O)N[C@@H](CC(=O)O)C(=O)N[C@@H](CCC(=O)O)C(=O)N[C@H](C(=O)N[C@H](C=O)CC(=O)O)C(C)C` [Ac-DEVD-CHO] as the compound, how does the “blocking of PSI-induced morphological changes and DNA fragmentation” value (HUE cells [1]) read?
Answer: Its value is “blocked”.

Question: With `CC(=O)N[C@@H](Cc1ccc(O)cc1)C(=O)N[C@H](C(=O)N[C@@H](C)C(=O)N[C@H](C=O)CC(=O)O)C(C)C` [Ac-YVAD-CHO] as the compound, how does the “blocking of PSI-induced morphological changes and DNA fragmentation” value (HUE cells [1]) read?
Answer: Its value is “unable to inhibit the action of PSI”.

Question: For `CC(C)C[C@H](NC(=O)[C@H]1O[C@@H]1C(=O)O)C(=O)NCCCCN=C(N)N` [E64], which “cleavage of Suc-Leu-Leu-Val-Tyr-AMC” value [2] is on record?
Answer: The value was “not”.

Question: For `CC(C)C[C@@H](C=O)NC(=O)[C@H](CC(C)C)NC(=O)[C@H](CC(C)C)NC(=O)OCc1ccccc1` [LLL] (Cbz-Leu-Leu-Leu-aldehyde), which “morphological changes associated with programmed cell death” value [3] is on record?
Answer: The value was “had the same effect”.

Question: Which results are given for `CSCC[C@@H](C=O)NC(=O)[C@H](CC(C)C)NC(=O)[C@H](CC(C)C)NC(C)=O` [LLnM] (Ac-Leu-Leu-Met-aldehyde)?
Answer: cleavage of Suc-Leu-Leu-Val-Tyr-AMC [2]: not; changes in cellular morphology or viability ([3]; cultured BAE cells): did not induce any changes; Ki (calpain): 9 nM; Ki (cathepsin B): 12 nM

Question: Which results are given for `CCC[C@@H](C=O)NC(=O)[C@H](CC(C)C)NC(=O)[C@H](CC(C)C)NC(=O)OCc1ccccc1` [LLnV] (Cbz-Leu-Leu-[Nva]-aldehyde)?
Answer: x difference (BAE cells; BAE, EC50 confluent versus subconfluent, 2880 min): 6.8 fold; EC50 (BAE cells; 96 h, BAE cells seeded at high density, grown to confluency for 4 days): 2720 nM; EC50 (BAE cells; BAE, con (grown to confluency for 4 days), 48 h incubation): 2720 nM; EC50 (BAE cells; BAE, sub (low density, subconfluent), 48 h incubation, viability reduced to 50% of DMSO control): 402 nM; x difference (HUE cells [4]; [7]): 8.1 fold; EC50 (HUE cells [4]; con (grown to confluency)): 2500 nM; EC50 (HUE cells [4]; [8]): 310 nM; EC50 (MDCK epithelial cells; con (confluent)): 2950 nM; EC50 (MDCK epithelial cells; [8]): 196 nM; x difference (MDCK epithelial cells; [7]): 15.1 fold; cleavage of Suc-Leu-Leu-Val-Tyr-AMC [2]: clearly reduced; total cellular peptidyl-glutamyl hydrolyzing activity (Z-Leu-Leu-Glu-AMC) [5]: similarly reduced; morphological changes associated with programmed cell death [3]: had the same effect

Question: For `CC(=O)N[C@@H](CC(C)C)C(=O)N[C@@H](CC(C)C)C(=O)N[C@H](C=O)CCCNC(=N)N` [Leupeptin], which “%CAMs with non-perfused areas” value ([6]; 3.1 µg/disc, methylcellulose disc on CAM for 48 h, Luconyl Blue injection, positive/total CAMs in parenthesis) is on record?
Answer: The value was 0 (0/26) %.

Question: And the “vascular patterning or perfusion efficacy in the CAM” value ([6]; same amount as PSI (3.1 µg/disc))?
Answer: Its value is “did not elicit any significant changes”.

Question: And the “cleavage of Suc-Leu-Leu-Val-Tyr-AMC” value [2]?
Answer: Its value is “not”.
